Test results published in patent publication US5087561A, “Humoral hypercalcemic factor antagonists modified at position 13 by biotin” (Merck & Co., Inc., priority 1990, dated 1992).

Tests used:
[1] = target: T1, PTH receptors (bovine renal cortical plasma membranes) (Bos taurus, UniProt Q1LZF7); assay: Bovine renal membrane binding assay; details: radioligand [Nle^8, 8, (^125 I)-Tyr^34 ]bPTH (1-34)NH2, 30 min, 21° C
T1 construct: from tissue; host or cells: bovine renal cortex plasma membranes
T1 sequence (Q1LZF7 29-589): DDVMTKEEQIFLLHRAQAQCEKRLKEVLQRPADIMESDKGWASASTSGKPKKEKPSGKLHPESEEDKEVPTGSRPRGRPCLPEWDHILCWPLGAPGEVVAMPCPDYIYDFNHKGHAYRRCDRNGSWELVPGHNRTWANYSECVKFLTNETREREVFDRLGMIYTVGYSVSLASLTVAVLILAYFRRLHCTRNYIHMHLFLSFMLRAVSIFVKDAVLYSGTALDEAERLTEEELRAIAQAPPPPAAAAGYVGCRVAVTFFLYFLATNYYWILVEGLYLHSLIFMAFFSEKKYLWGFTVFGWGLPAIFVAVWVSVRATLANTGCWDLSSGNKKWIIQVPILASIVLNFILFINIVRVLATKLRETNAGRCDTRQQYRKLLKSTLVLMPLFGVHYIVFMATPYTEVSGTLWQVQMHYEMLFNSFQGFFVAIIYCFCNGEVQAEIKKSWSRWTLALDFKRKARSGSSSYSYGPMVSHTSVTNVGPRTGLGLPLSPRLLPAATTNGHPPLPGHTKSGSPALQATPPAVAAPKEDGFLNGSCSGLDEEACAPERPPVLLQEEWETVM
Procedure: HCF analogues were analysed in a new receptor assay reported in Goldman et al., Endocrin 123: 1468-1475 (1988). The binding assay used [Nle^8, 8, (^125 I)-Tyr^34 ]bPTH (1-34)NH2 which was purified by HPLC (Novapak C18, 32-35% CH3 CN in 0.1% TFA) and was stored as aliquots in 25 mM TrisHCl/1%BSA at -70° C. Bovine renal cortical plasma membranes were incubated with radioligand (25,000 cpm) in a Tris-containing buffer (250 μl) for 30 min at room temperature 21° C. Once equilibrium was reached, bound and free radioligand were separated by centrifugation. High specific binding (85%) to bovine renal cortical membranes was obtained consistently.

[2] = system: adenylate cyclase, human osteosarcoma cell line, B10; assay: Human bone cell (B 10) adenylate cyclase assay; format: cell-based; details: inhibition of cAMP stimulation by lnM [Nle^8,18, Tyr^34 ] bPTH(1-34) NH2; B10 cells
Procedure: HCF analogues were analyzed in a human osteosarcoma cell line, B10, for the ability to inhibit cAMP stimulation by lnM [Nle^8,18, Tyr^34 ] bPTH(1-34) NH2 by the method described by R. J. Majeska et al, Endocrinol. 107, 1494 (1980).
Adenylate cyclase assay: Confluent cultures were rinsed in CMFH and scraped into 0.5-1.0 ml buffer (10 mM Tris-HCl, pH 7.8; 1 mM dithiothreitol, 0.2 mM MgCl2; and 0.5 mM EGTA) and homogenized with 10 strokes of a Dounce homogenizer (pestle A). Adenylate cyclase activity was measured by the method of Salomon et al., (18) on samples of either homogenate or membrane pellets obtained by centrifugation of diluted homogenates at 47,000×g for 30 min. The enzyme assay mix contained 0.1-0.3 mM [α-^32 P]ATP, MgCl2, and guanine nucelotides, as specified in the tables and FIGURES, and 1 mM cAMP, 5 mM phosphocreatine, and 100 U/ml creatine phosphokinase. Purified bovine PTH-(1-84), generously provided by Drs. H. Keutmann and M. Rosenblatt, Massachusetts General Hospital, Boston, MA, was dissolved and diluted in 1.5 ml/liter acetic acid containing 1 g/liter bovine serum albumin (Pentex fraction V, Miles Laboratories, Elkhart, IN). L-Isoproterenol bitarate (Sigma Chemical Co., St. Louis, MO) was prepared immediately before use and dissolved and diluted in assay buffer. Control tubes were assayed in the presence of diluent alone.

[3] = target: T2, PTH receptors (human bone cells) (Homo sapiens, UniProt Q03431); assay: Human bone cell binding assay; details: confluent monolayers, radioligand [Nle^8,18,(^125 I)-Tyr^34 ]bPTH(1-34)NH2, room temperature, 4 hours
T2 construct: endogenous in cells
T2 sequence (Q03431 27-593): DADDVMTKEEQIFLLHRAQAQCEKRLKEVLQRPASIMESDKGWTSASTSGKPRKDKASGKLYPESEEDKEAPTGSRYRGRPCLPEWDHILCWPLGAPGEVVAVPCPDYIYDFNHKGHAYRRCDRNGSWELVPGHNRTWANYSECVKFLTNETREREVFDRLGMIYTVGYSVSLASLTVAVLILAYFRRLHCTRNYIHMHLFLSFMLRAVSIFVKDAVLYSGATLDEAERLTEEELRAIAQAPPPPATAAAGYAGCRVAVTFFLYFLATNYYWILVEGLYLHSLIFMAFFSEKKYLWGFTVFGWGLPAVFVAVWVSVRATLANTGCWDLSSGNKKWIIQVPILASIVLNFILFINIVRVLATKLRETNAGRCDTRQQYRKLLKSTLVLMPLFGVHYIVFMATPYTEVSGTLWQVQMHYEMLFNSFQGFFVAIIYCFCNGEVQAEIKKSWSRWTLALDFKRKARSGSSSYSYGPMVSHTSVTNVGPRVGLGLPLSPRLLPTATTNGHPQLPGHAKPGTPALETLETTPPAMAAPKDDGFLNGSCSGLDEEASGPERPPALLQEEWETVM
Procedure: HCF analogues were analyzed in a new receptor binding assay as follows. Cells were plated in 24-well dishes in RPMl 1640 medium supplemented with 1% BSA, 20 mM HEPES, pH 7.5, and 0.1% azide. [Nle^8,18,(^125 I)-Tyr^34 ]bPTH(1-34)NH2 (50,000 cpm/well) was added to confluent monolayers in the absence or presence of varying concentrations of analogue under investigation in a final volume of 0.25 ml. Cultures were incubated at room temperature for 4 hours. Reactions were terminated by placing the cultures on ice and washing 4 times with ice cold PBS. Radioactivity associated with the cells was recovered by solubilizing the cells with 1 ml of 1N NaOH.

- Kb [1]: 22.6 nM
- Ki [3]: 37.3 nM
SMILES: CC[C@H](C)[C@H](NC(=O)[C@H](CC(C)C)NC(=O)[C@H](Cc1c[nH]cn1)NC(=O)[C@H](Cc1c[nH]cn1)NC(=O)[C@H](CC(C)C)NC(=O)[C@H](Cc1ccccc1)NC(=O)[C@H](Cc1ccccc1)NC(=O)[C@H](CCCNC(=N)N)NC(=O)[C@H](CCCNC(=N)N)NC(=O)[C@H](CCCNC(=N)N)NC(=O)[C@H](CC(C)C)NC(=O)[C@H](CC(=O)O)NC(=O)[C@H](CCC(N)=O)NC(=O)[C@@H](NC(=O)[C@H](CO)NC(=O)[C@H](CCCCNC(=O)CCNC(=O)CCCC[C@@H]1SC[C@@H]2NC(=O)N[C@@H]21)NC(=O)[C@@H](Cc1c[nH]c2ccccc12)NC(=O)[C@H](CC(C)C)NC(=O)[C@H](CC(=O)O)NC(=O)[C@H](Cc1c[nH]cn1)NC(=O)[C@H](CC(C)C)NC(=O)[C@@H](N)CC(C)C)[C@@H](C)CC)C(=O)N[C@@H](C)C(=O)N[C@@H](CCC(=O)O)C(=O)N[C@H](C(=O)N[C@@H](Cc1c[nH]cn1)C(=O)N[C@H](C(=O)N[C@@H](C)C(N)=O)[C@@H](C)O)[C@@H](C)CC [[Leu^11,D-Trp^12,Lys^13 (ε-(N-biotinyl β-Ala))]hHCF(7-34)NH2]
- Ki [2]: 7.6 nM
